This assay concerns the target T1, human chemokine receptor CCR3 (Homo sapiens, UniProt P51677).
T1 construct: expressed in transfected cells; host or cells: K562 cell line (hCCR3-C1 cells), membrane preparation
T1 sequence (P51677 1-355): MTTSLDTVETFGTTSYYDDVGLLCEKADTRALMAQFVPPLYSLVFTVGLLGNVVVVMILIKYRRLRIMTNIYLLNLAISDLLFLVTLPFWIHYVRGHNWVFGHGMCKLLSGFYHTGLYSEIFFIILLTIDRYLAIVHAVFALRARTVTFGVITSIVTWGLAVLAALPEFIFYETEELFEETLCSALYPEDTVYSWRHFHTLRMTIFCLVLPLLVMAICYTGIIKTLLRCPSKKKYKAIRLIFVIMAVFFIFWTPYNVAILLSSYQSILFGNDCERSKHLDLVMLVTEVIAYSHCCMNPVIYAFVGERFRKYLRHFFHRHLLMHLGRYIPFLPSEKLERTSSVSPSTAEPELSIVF
As to the kind of experiment: CCR3 receptor binding assay (SPA, 125I-eotaxin-1 displacement, hCCR3-C1 K562 cell membranes). The settings on record: human Eotaxin-1 at human CCR3-Rezeptor; for inhibition at 1 µM: 1 μM test compound, read-out: CCR3 % inh @ 1 μM; for Ki: dose range 0.1 to 10000 nM. The protocol: The CCR3 receptor binding test is based on a K562 cell line (leukemia myelogenic blast cells) transfected with the human chemokine receptor CCR3 (hCCR3-C1 cells). The cell membranes were prepared by disrupting the hCCR3-C1 cells by […]. The preparation was centrifuged at 400 g 4° C. for 30 min. The supernatant was transferred into fresh tubes followed by a second centrifugation at 48000 g, 4° C. for 1 h. The membranes were re-suspended in the SPA incubation buffer (25 mM HEPES, 25 mM MgCl2 6×H2O, 1 mM CaCl2 2×H2O) without bovine serum albumin and homogenized by passing through a single use needle (Terumo, 23Gx1″). The membranes were stored in aliquots at −80° C.
The CCR3 receptor binding assay was performed in a Scintillation Proximity Assay (SPA) design with the radioligand recombinant human ^125Iodine-eotaxin-1. Cell membranes of hCCR3 C1 cells were again homogenized by passing through a single use needle (Terumo, 23Gx1″) and diluted in SPA incubation buffer in suitable concentrations (0.5-10 μg protein/well) in 96 well microtiter plates (1450-514, Perkin Elmer). The SPA assay was set up in the SPA incubation buffer with a final volume of 200 μl and final concentration of 25 mM HEPES, 25 mM MgCl2 6×H2O, 1 mM CaCl2 2×H2O and 0.1% bovine serum albumin. The SPA assay mixture contained 60 μl of the membrane suspension, 80 μl of Wheat Germ Agglutinin coated PVT beads (organic scintillator, GE Healthcare, RPNQ-0001) 0.2 mg/well), 40 μl of recombinant human ^125Jodine-eotaxin-1 (Biotrend), diluted in SPA buffer to a final concentration of 30.000 dpm per well, and 20 μl of the test compound (dissolved in DMSO dilutions). The SPA assay mixture was incubated for 2 h at room temperature. Bound radioactivity was determined with a scintillation counter (Micro Beta “Trilux”, Wallac). Included were controls for total binding (no displacer added, Bo) and non-specific binding (NSB) by adding unlabelled recombinant human Eotaxin-1 (Biotrend, Cat #300-21) or a reference compound.
Determination of the affinity of a test compound was calculated by subtraction of the non-specific binding (NSB) from the total binding (Bo) or the binding in the presence of the test compound (B) at a given compound concentration. […] The Bo-NSB value was set to 0% inhibition.
% inhibition and Ki values are (human Eotaxin-1 at human CCR3-Rezeptor): […]

As a reminder, the Ki is the equilibrium dissociation constant of an inhibitor or competing ligand from its target. Low values mean tighter binding, high ones weaker binding.

In the case of `CNC(=O)N1CCc2cc(NC(=O)[C@H]3CCC(=O)N3C3CCN(Cc4ccc(Cl)c(C)c4)CC3)ccc21` [Example 37], the inhibition at 1 µM is 80% and the Ki turned out to be 175 nM.

`Cc1cc(CN2CCC(N3C(=O)CC[C@@H]3C(=O)Nc3cc(C(=O)N(C)C)cc(C(C)(C)C)c3)CC2)ccc1Cl` [Example 171]: the inhibition at 1 µM was 99% and the Ki was 5 nM.

Regarding `CNC(=O)c1cccc(NC(=O)[C@H]2CCC(=O)N2C2CCN(Cc3ccc(Cl)s3)CC2)c1` [Example 206], the inhibition at 1 µM was 77% and affinity was put at a Ki of 357 nM.

Regarding `CNC(=O)c1cccc(NC(=O)[C@H]2CCC(=O)N2C2CCN(Cc3ccc(Cl)c(F)c3)CC2)c1` [Example 204], the inhibition at 1 µM worked out at 80% and the affinity, expressed as Ki, was 299 nM.

For the compound `Cc1cc(CN2CCC(N3C(=O)CC[C@@H]3C(=O)N[C@H]3CC[C@H](NC(=O)Nc4ccccc4)CC3)CC2)ccc1Cl` [Example 44], the inhibition at 1 µM was determined as 63% and the affinity corresponds to a Ki of 552 nM.

For `COC(=O)CC(NC(=O)[C@@H]1CCC(=O)N1C1CCN(Cc2ccc(Cl)c(C)c2)CC1)c1ccccn1` (some centres unmarked) [Example 97], the inhibition at 1 µM came to 50% and the Ki is 669 nM.

Consider `Cc1cc(CN2CCC(N3C(=O)CC[C@@H]3C(=O)Nc3cc(C(=O)N(C)C)ccn3)CC2)ccc1Cl` [Example 147], for which the inhibition at 1 µM was determined as 99% and the affinity corresponds to a Ki of 8 nM.

Turning to `Cc1cc(CN2CCC(N3C(=O)CC[C@@H]3C(=O)Nc3cc(C(=O)N4CCOCC4)ccn3)CC2)ccc1Cl` [Example 160], the inhibition at 1 µM stood at 97% and affinity was put at a Ki of 19 nM.

`Cc1cc(CN2CCC(N3C(=O)CC[C@@H]3C(=O)Nc3cccc(C(=O)NC(C)(C)C)c3)CC2)ccc1Cl` [Example 158]: the inhibition at 1 µM was 100% and the affinity corresponds to a Ki of 16 nM.

Consider `Cc1cc(CN2CCC(N3C(=O)CC[C@H]3C(=O)N3CCc4c(F)ccc(F)c4C3)CC2)ccc1Cl` [Example 57], for which the inhibition at 1 µM is 74% and the Ki came to 302 nM.

Take `CCOC(=O)c1sc(NC(=O)[C@H]2CCC(=O)N2C2CCN(Cc3ccc(Cl)c(C)c3)CC2)nc1C` [Example 100]: the inhibition at 1 µM stood at 100% and the Ki was 7 nM.

`Cc1cc(CN2CCC(N3C(=O)CC[C@@H]3C(=O)Nc3cccc(C(=O)N(C)C(C)C)c3)CC2)ccc1Cl` [Example 133]: the inhibition at 1 µM stood at 100% and the Ki is 3 nM.

For the compound `Cc1cc(CN2CCC(N3C(=O)CC[C@@H]3C(=O)Nc3cc(C(=O)N(C)CCO)cc(-c4nnnn4C)c3)CC2)ccc1Cl` [Example 186], the inhibition at 1 µM amounted to 99% and the Ki stood at 1 nM.

Take `CNC(=O)c1cccc(NC(=O)[C@H]2CCC(=O)N2C2CCN(Cc3ccc(Br)cc3)CC2)c1` [Example 200]: the inhibition at 1 µM came to 86% and the affinity corresponds to a Ki of 114 nM.

`Cc1cc(CN2CCC(N3C(=O)OC[C@H]3C(=O)Nc3ccc4ncsc4c3)CC2)ccc1Cl` [Example 118]: the inhibition at 1 µM is 94% and the Ki worked out at 40 nM.

As for `Cc1cc(-c2nc[nH]n2)cc(NC(=O)C2CCC(=O)N2C2CCN(Cc3ccc(Cl)c(C)c3)CC2)n1` (centres unmarked) [Example 210], the inhibition at 1 µM is 96%.

For the compound `Cc1cc(CN2CCC(N3C(=O)CC[C@@H]3C(=O)Nc3cc(C(=O)N(C)C)cc(-c4nnnn4C)c3)CC2)ccc1Cl` [Example 185], the inhibition at 1 µM is 98% and the Ki turned out to be 1 nM.

For `Cc1cc(CN2C3CCC2CC(N2C(=O)CC[C@@H]2C(=O)Nc2cccc(N(CC(=O)N(C)C)S(=O)(=O)C4CC4)c2)C3)ccc1Cl` (some centres unmarked) [Example 78], the inhibition at 1 µM turned out to be 94% and the Ki was 50 nM.

Take `Cc1nnc(NC(=O)c2cccc(NC(=O)[C@H]3CCC(=O)N3C3CCN(Cc4ccc(Cl)c(C)c4)CC3)c2)s1` [Example 154]: the inhibition at 1 µM stood at 98% and the Ki turned out to be 14 nM.

For the compound `Cc1cc(CN2CCC(N3C(=O)CC[C@H]3C(=O)Nc3ccc4c(c3)CCC(=O)N4)CC2)ccc1Cl` [Example 23], the inhibition at 1 µM is 95% and the affinity, expressed as Ki, was 18 nM.

On to `Cc1cc(CN2CCC(N3C(=O)CC[C@H]3C(=O)NCc3ccc(Cl)nc3C)CC2)ccc1Cl` [Example 70], for which the inhibition at 1 µM was 46% and the Ki is 791 nM.

As to `Cc1cc(CN2CCC(N3C(=O)CC[C@H]3C(=O)N3CCc4cccc(F)c4C3)CC2)ccc1Cl` [Example 58], the inhibition at 1 µM was 76% and the affinity, expressed as Ki, was 221 nM.

As to `CCNS(=O)(=O)c1cccc(NC(=O)[C@H]2CCC(=O)N2C2CC3CCC(C2)N3Cc2ccc(Cl)c(C)c2)c1` (some centres unmarked) [Example 80], the inhibition at 1 µM worked out at 95% and affinity was put at a Ki of 55 nM.

As to `Cc1cc(CN2CCC(N3C(=O)CC[C@@H]3C(=O)N3Cc4ccccc4C3)CC2)ccc1Cl` [Example 63], the inhibition at 1 µM is 60% and affinity was put at a Ki of 518 nM.

Regarding `CCn1cc(NC(=O)[C@H]2CCC(=O)N2C2CCN(Cc3ccc(Cl)c(C)c3)CC2)cc1C(=O)OC` [Example 91], the inhibition at 1 µM worked out at 98% and the affinity, expressed as Ki, was 18 nM.

Consider `CCCCS(=O)(=O)NC1CCCN(C(=O)[C@@H]2CCC(=O)N2C2CCN(Cc3ccc(Cl)c(C)c3)CC2)C1` (some centres unmarked) [Example 49], for which the inhibition at 1 µM came to 41% and the affinity corresponds to a Ki of 1180 nM.

Regarding `Cc1cc(CN2CCC(N3C(=O)N(C)C[C@H]3C(=O)Nc3cccc(-c4nc[nH]n4)c3)CC2)ccc1Cl` [Example 126], the inhibition at 1 µM stood at 89% and the affinity corresponds to a Ki of 71 nM.

Consider `Cc1cc(CN2C3CCC2CC(N2C(=O)CC[C@@H]2C(=O)Nc2cc(C4CC4)nn2C)C3)ccc1Cl` (some centres unmarked) [Example 85], for which the inhibition at 1 µM is 68% and the Ki was 350 nM.

As to `Cc1cc(CN2CCC(N3C(=O)N(C)C[C@H]3C(=O)Nc3ccno3)CC2)ccc1Cl` [Example 129], the inhibition at 1 µM stood at 70% and affinity was put at a Ki of 334 nM.

Turning to `Cc1cc(CN2CCC(N3C(=O)CC[C@@H]3C(=O)Nc3cccc(S(=O)(=O)N4CCCCC4)c3)CC2)ccc1Cl` [Example 22], the inhibition at 1 µM worked out at 84% and the Ki stood at 13 nM.

`CNC(=O)c1cc(F)cc(NC(=O)[C@H]2CCC(=O)N2C2CCN(Cc3ccc(Cl)c(C)c3)CC2)c1` [Example 177]: the inhibition at 1 µM is 97% and the Ki turned out to be 24 nM.

As to `Cc1cc(CN2CCC(N3C(=O)CC[C@@H]3C(=O)N3CCc4c(F)cccc4C3)CC2)ccc1Cl` [Example 59], the inhibition at 1 µM came out at 66% and affinity was put at a Ki of 402 nM.

As for `Cc1cc(C(=O)N(C)C)cc(NC(=O)[C@H]2CCC(=O)N2C2CCN(Cc3ccc(Cl)c(C)c3)CC2)n1` [Example 135], the inhibition at 1 µM was determined as 101% and affinity was put at a Ki of 3 nM.

For `CCS(=O)(=O)N(CC(=O)N(C)C)c1cccc(NC(=O)[C@H]2CCC(=O)N2C2CC3CCC(C2)N3Cc2ccc(Cl)c(C)c2)c1` (some centres unmarked) [Example 79], the inhibition at 1 µM worked out at 91% and the inhibition constant (Ki) turned out to be 52 nM.

For the compound `CCn1cc(NC(=O)[C@H]2CCC(=O)N2C2CCN(Cc3ccc(Cl)c(C)c3)CC2)cc1C(=O)N1CCCC1` [Example 164], the inhibition at 1 µM was 96% and the Ki stood at 24 nM.

As for `Cc1cc(CN2C3CCC2CC(N2C(=O)CC[C@@H]2C(=O)Nc2cccc(N(CC(=O)N4CCC4)S(C)(=O)=O)c2)C3)ccc1Cl` (some centres unmarked) [Example 75], the inhibition at 1 µM amounted to 97% and the Ki turned out to be 30 nM.
